The values below come from patent publication US5527828A, “Spin trap nitronyl hindered phenols” (priority 1995, dated 1996).

Like-named read-outs stand apart in the source and are kept apart here.

Series [1] has as its system rat liver microsomes.
In series [2] the test system is rat liver microsomes. As to the kind of experiment: Inhibition of lipid peroxidation (LPO) initiated by tert-butoxyl radicals in rat liver microsomes, TBA test for MDA (Example 1). The conditions noted are these: for relative efficiency normalized to 1.0 for PBN: from IC50 data of Example 1; for IC50: read-out: Inhibitor Concentration of 50% Inhibition (IC50), RLM (I), LPO initiated by tert-butoxyl radicals, 37° C., one hour, pH 7.4, average of 5 experiments, interpolated, estimated or measured.

In series [3] the test system is rat brain microsomes. The experiment in a line: Inhibition of LPO in rat brain microsomes, TBA test for MDA production (Example 3). Format: biochemical. The conditions noted are these: for IC50: rat brain microsomes; for inhibition of LPO in these systems: conclusion in words on the data obtained. Here is the method: Similar tests were performed with rat brain microsomes using the TBA test for MDA production as the result of LPO.

In series [4] the test system is rat liver microsomes. The conditions noted are these: read-out: Inhibitor Concentration of 50% Inhibition (IC50); RLM (II); LPO initiated by NADPH/cytochrome-P450 metabolism of CCl4; average of 5 experiments; interpolated.
Setting [5] is: value in parentheses, read-out: IC50 RBM (III).

For the compound `Cc1cc(C(C)(C)C)c(O)c(C(C)(C)C)c1` [BHT, butylated hydroxy toulene, reference compound], the values for the IC50 in series [1] and in series [2] were 55 µM and 5.3 µM, respectively. In series [2] (rat liver microsomes), the “relative efficiency normalized to 1.0 for PBN” value (“relative efficiency normalized” below) is 2000.

Consider `CC(C)(C)c1cc(C=[N+]([O-])C(C)(C)C)cc(C(C)(C)C)c1O` [DBBNP, 2,6-di-tert-butyl-4-(N-tert-butyl) nitronyl phenol], for which the IC50 is 0.7 µM in series [3] (RBM (III), TBA test for MDA); 0.7 µM in series [3] (setting [5]); 53 µM in series [4]; 4.3 µM in series [2]. Moreover, the “inhibition of LPO in these systems” value in series [3] was “very good inhibitors”. Further, the “effectiveness as inhibitor of LPO compared with BHT” value in series [2] (conclusion in words, taking into account experimental precision) is “at least as good as BHT and probably better”. Moreover, the “relative efficiency normalized” value in series [2] (rat liver microsomes) was 2466. For the same compound, the “better than BHT as an inhibitor of LPO” value in series [2] (rat liver microsomes, versus BHT) is “about 20%”. The “times more effective as an inhibitor of LPO than PBN” value in series [2] (rat liver microsomes, versus PBN) is recorded as “about 2000 times”.

`CC(C)(C)CC(C)(C)[N+]([O-])=Cc1cc(C(C)(C)C)c(O)c(C(C)(C)C)c1` [DBONP, 2,6-di-tert-butyl-4-(N-tert-octyl) nitronyl phenol]: the IC50 was 0.3 µM in series [3] (RBM (III), TBA test for MDA); 0.3 µM in series [3] (setting [5]); 35 µM in series [4]; 5.8 µM in series [2]. Besides, in series [3], the “inhibition of LPO in these systems” value is reported as “very good inhibitors”. Besides, the “relative efficiency normalized” value in series [2] (rat liver microsomes) stood at 1828.

On to `Cc1cc(C=[N+]([O-])C(C)(C)C)cc(C)c1O` [DMBNP, 2,6-dimethyl-4-(N-tert-butyl) nitronyl phenol], for which the IC50 in series [3] (RBM (III), TBA test for MDA) was 600 µM; in series [4], 710 µM; in series [2], 230 µM. Besides, the “relative efficiency normalized” value in series [2] (rat liver microsomes) is 46.

Consider `Cc1cc(C=[N+]([O-])C(C)(C)CC(C)(C)C)cc(C)c1O` [DMONP, 2,6-dimethyl-4-(N-tert-octyl) nitronyl phenol], for which the IC50 in series [3] (RBM (III), TBA test for MDA) is 70 µM; in series [4], 60 µM; in series [2], 16.4 µM. In series [2] (rat liver microsomes), the “relative efficiency normalized” value is listed as 646.

For the compound `CC(C)(C)CC(C)(C)[N+]([O-])=Cc1ccccc1` [OPN, N-tert-octyl C-phenyl nitrone], the IC50 in series [3] (RBM (III), TBA test for MDA) was 76 µM; in series [4], 6500 µM; in series [2], 462 µM. Further, the “relative efficiency normalized” value in series [2] (rat liver microsomes) is 24.

On to `CC(C)(C)[N+]([O-])=Cc1ccccc1` [PBN, α-phenyl t-butyl nitrone, reference compound], for which the IC50 in series [3] (RBM (III), TBA test for MDA) is 1000 µM; in series [4], 17500 µM; in series [2] it was 9800 µM. In series [2] (rat liver microsomes), the “relative efficiency normalized” value was 1.0.

With `Cc1c(C)c2c(c(C)c1O)CCC(C)(CCCC(C)CCCC(C)CCCC(C)C)O2` (stereo not drawn) [Tocopherol, α-tocopherol, reference compound], the “relative efficiency normalized” value in series [2] (rat liver microsomes) amounted to 354. For the same compound, the IC50 in series [2] was 30 µM.
